Molecules are shown by their SMILES.

Expression of renin data for one molecule are collected here from patent publication US20240318142A1, “METHOD FOR PRODUCING RENAL INTERSTITIAL PROGENITOR CELLS, ERYTHROPOIETIN-PRODUCING CELLS, AND METHOD FOR PRODUCING RENIN-PRODUCING CELLS” (KYOTO UNIVERSITY, priority 2021, published 2024).

For the experiment, the system named is hiPSC-derived IPCs. Description: qRT-PCR of renin and mesangial/JG cell markers after further differentiation induction from IPCs (renin-producing cells). It is filed as cell-based, human. Conditions: combination of CHIR99021 and SB431542, absence of SAG; 5% O2, FG-4592 and RA present; FIG. 9. The protocol:
FIG. 9 is a diagram illustrating results of qRT-PCR analysis of EPO and renin carried out on Days 11 to 14, that is, after obtaining renal interstitial progenitor cells, for comparison of the effects of combinations of candidate differentiation induction factors for renal EPO-producing cells or renin-producing cells. The SAG concentration was 500 nM, and the concentrations of SB and CHIR are expressed in the unit of μM.
FIG. 10 is a diagram illustrating results of qRT-PCR analysis of EPO and renin on Days 11 to 14, that is, after obtaining renal interstitial progenitor cells, for comparison of the effects of combinations of various candidate differentiation induction factors. The SAG concentration was 500 nM; the concentrations of SB and A83 are expressed in the unit of μM; LDN is expressed in the unit of nM; and TGFβ1, BMP7, and activin (ACT) are expressed in the unit of ng/mL.
FIG. 11 is a diagram illustrating results of qRT-PCR analysis of renin on Days 11 to 14, that is, after obtaining renal interstitial progenitor cells, for comparison of the effects of various factors. In the presence of CHIR99021, RA, and FG-4592 (CFR), the effects of BMP4, BMP5, and BMP7 (10 ng/mL or 100 ng/mL) were investigated under conditions with or without treatment by SB431542 (1 μM). SB is expressed in the unit of […], and TGFβ1 and ACT are expressed in the unit of ng/mL.
FIG. 12 is a diagram illustrating results of qRT-PCR analysis of marker expression for the mesangial cell lineage (GATA3, renin, and GJA5) and IPCs (FOXD1) at Hour 0 and Hour 96 after treatment with CFR+BMP7+SB. iPSC represents the control.
FIG. 13 is a diagram illustrating results of qRT-PCR analysis of cells that were subjected to treatment under hypoxic (CFR+B7+SB in 5% O2) or normal oxygen (CFR+B7+SB minus FG-4592 in 20% O2) conditions on Days 11 to 15, that is, after obtaining renal interstitial progenitor cells, which analysis was carried out for markers for JG (renin and GJA4) and mesangial cells (EBF1, GJA5, ITGA8, and GATA3). * indicates p<0.05; ** indicates p<0.01; and NS indicates “no significant difference” (Student's t-test).
FIG. 14 is a diagram illustrating results of qRT-PCR analysis of cells that were subjected to treatment with VEGF (100 ng/mL) or axitinib (3 μM) and also to treatment under hypoxic conditions (CFR+B7+SB in 5% O2) or normal conditions (CFR+B7+SB minus FG-4592 in 20% O2) on Days 11 to 15, that is, after obtaining renal interstitial progenitor cells, which analysis was carried out for markers for JG (renin and GJA4), mesangial cells (EBF1, GJA5, ITGA8, and GATA3), and VEGFA.
First, using the IPCs on Day 11, culture was performed under 5% O2 hypoxic conditions in the presence of FG-4592 (N-[(4-hydroxy-1-methyl-7-phenoxy-3-isoquinolinyl)carbonyl]-glycine) and RA with addition of various factors. By measuring the expression of EPO and renin, screening for induction factors for renin-producing cells and renal EPO-producing cells was carried out.
A general note: Quantitative PCR measures a nucleic acid by following its amplification.

In the case of `NC(=O)c1ccc(-c2nc(-c3ccc4c(c3)OCO4)c(-c3ccccn3)[nH]2)cc1` [SB431542], the expression of renin result is on record as “increase the expression of renin”.
